Experimental findings from article PMC8966664 (Frontiers in Pharmacology, 2022) are described below.

One series relates to RTS-induced liver injury. Description: Serum ALT, hepatic MDA and GSH in RTS-induced liver injury. Type of series: in vivo, Sprague Dawley rats. To be noted: rats. The protocol:
(§1) EX and GA were dissolved in distilled water at 37°C for oral administration with the dosage of EX and GA as 500 mg/kg and 50 mg/kg. […] RTS was given following the last dose of distilled water/GA/EX. Detailed dosage regimens are described in Supplementary Figure S2. All rats were sacrificed at 48 h after the last dosing. Serum and liver samples were collected and stored at −80°C until use.
The serum alanine transaminase (ALT) level was measured by a kit obtained from Sigma-Aldrich Chemical Co. (St. Louis, MO, United States). The total bilirubin level was measured by the QuantiChromTM Bilirubin Assay kit according to the manufacturer’s instructions (BioAssay Systems, Hayward, CA, United States). Hepatic malondialdehyde (MDA) level was measured using a kit obtained from Nanjing Jiancheng Bioengineering Institute (Nanjing, China). Total GSH content in the liver was measured following a standard spectrophotometric method using Ellaman’s reagent.

Series [1] concerns sinusoidal endothelial cells. Put plainly: Immunofluorescence of RECA-1 in liver sections. The class given is in vivo, Sprague Dawley rats. Conditions: rats; EX or GA treated groups + RTS. The protocol: as §1
The largest lobe of the rat liver was sliced, cold-embedded in Tissue-Tek OCT compound, and processed for immunohistochemistry according to the Abcam IHC frozen sections staining protocol. The tissue slices were incubated with rat endothelial cell antigen (RECA)-1 antibody and Alexa Fluor 488-conjugated goat anti-mouse IgG, and then stained with DAPI and observed under Olympus FluoViewTM FV1000 confocal microscope.

Series [2] deals with pyrrole-protein adducts. Put plainly: Formation of pyrrole-protein adducts in liver and serum/plasma of RTS-treated rats. Type of series: in vivo, Sprague Dawley rats. The protocol:
as §1
The pyrrole-protein adducts were measured according to our previously developed method ([Lin et al., 2011]; [Ruan et al., 2014]). Briefly, 50 mg liver or 100 µL serum/plasma was mixed with acetone and centrifuged at 900 x g for 10 min. The precipitated protein was treated with silver nitrate (20 mg/ml) in ethanol containing 5% trifluoroacetic acid to release pyrrole moiety from the pyrrole-protein adducts. After centrifugation, an aliquot of the supernatant was incubated with 4-dimethylaminobenzaldehyde (20 mg/ml) at 56°C for 10 min. The mixture was filtered and subjected to LC-MS/MS analysis. 7,9-diGS-DHP was used as a standard with a concentration ranging from 0.2 to 2000 nM and underwent the same preparation process to construct a calibration curve. […] After centrifuging at 20,000 x g for 30 min, the supernatants were collected and analyzed by LC-MS/MS according to our previously developed methods ([Ma et al., 2019]; [He et al., 2021a]; [Ma et al., 2021]).
The LC-MS/MS analysis was performed on an Agilent 6460 Triple Quadrupole LC/MS System using a Waters Acquity BEH C18 column (2.1 × 100 mm, […]). For the detection of pyrrole-protein adducts, the mobile phase of water containing 0.1% formic acid (A) and acetonitrile containing 0.1% formic acid (B) was used with a gradient elution as follows: 0–5 min, 35–95% B; 5.5–6 min, 95–35% B. The flow rate was 0.3 ml/min. The injection volume was 3 μL. […] The injection volume was 5 µL. The mass spectrometer was operated in multiple reactions monitoring for data acquisition.

Series [3] concerns pyrrole-protein adducts. Description: Toxicokinetic study: plasma kinetic profile of pyrrole-protein adducts. Type of series: in vivo, Sprague Dawley rats. Conditions: rats; GA 50 mg/kg + RTS 30 mg/kg vs RTS group. The protocol: For the toxicokinetic study, jugular vein cannulation was performed on rats on the day before drug administration. The right jugular vein was cannulated with a polyethylene tube (0.4 mm i.d. × 0.8 mm o.d., SIMS Portex, United Kingdom) for blood sampling. The rats were maintained in individual metabolic cages and fasted overnight with free access to water. […] Saline (0.2 ml) containing 25 units of heparin/mL was injected after each blood sampling for compensation of blood withdrawal. The blood samples were then centrifuged at 3,000 x g for 30 min, and plasma samples were harvested and stored at −20°C until use.
The pyrrole-protein adducts were measured according to our previously developed method ([Lin et al., 2011]; [Ruan et al., 2014]). Briefly, 50 mg liver or 100 µL serum/plasma was mixed with acetone and centrifuged at 900 x g for 10 min. […] After centrifuging at 20,000 x g for 30 min, the supernatants were collected and analyzed by LC-MS/MS according to our previously developed methods ([Ma et al., 2019]; [He et al., 2021a]; [Ma et al., 2021]). […]
Data are expressed as mean ± SD. […] Toxicokinetic parameters were calculated by noncompartmental methods using WinNonlin version 4.0 (Pharsight, Mountain View, CA, United States). […] The inhibition constant (K i ) value of GA was determined by the secondary Lineweaver-Burk plots. […]

Another series has as its system rat CYP3A1. Put plainly: Enzymatic kinetic study with nifedipine in rat liver microsomes. Type of series: biochemical. The protocol:
The mixture was pre-incubated at 37°C for 15 min. […] The supernatant was filtered through a 0.22 µm membrane filter before the LC-MS/MS analysis.
Data are expressed as mean ± SD. The Student’s t test was used for the comparison between two groups. The one-way ANOVA followed with a post hoc Bonferroni’s multiple comparison test was used for the comparison among multiple groups. Toxicokinetic parameters were calculated by noncompartmental methods using WinNonlin version 4.0 (Pharsight, Mountain View, CA, United States). The enzyme kinetic parameters were estimated from the best fit line using least-squares linear regression of the inverse substrate concentration versus the inverse velocity (Lineweaver-Burk plots), and the mean values were used to calculate the Km and Vmax. […] The statistical significance was set as ^* p < 0.05, ^** p < 0.01 or ^*** p < 0.001.
In general terms: Microsomes from liver hold many membrane-bound enzymes, among them those of drug oxidation.

The mark [4] stands for this setting: substance alone (EX/GA single and multiple administrations; RTS single dose), 48 h.
Where [5] appears, read: multiple treatment (EX 500 mg/kg or GA 50 mg/kg) + RTS.
The mark [6] stands for this setting: single treatment (EX 500 mg/kg or GA 50 mg/kg) + RTS.

Molecules are shown by their SMILES.

Consider `CC1(C)[C@@H](O)CC[C@]2(C)[C@H]3C(=O)C=C4[C@@H]5C[C@@](C)(C(=O)O)CC[C@]5(C)CC[C@@]4(C)[C@]3(C)CC[C@@H]12` [GA, 18β-glycyrrhetinic acid], for which the “RTS-induced hepatic GSH elevation” value with RTS-induced liver injury (EX or GA treatment + RTS, especially multiple dosage regimens) was “attenuated”. Also, in the series on RTS-induced liver injury (multiple doses + RTS 40 mg/kg), the “RTS-induced hepatic MDA elevation” value is recorded as “significantly attenuated” and the “RTS-induced serum ALT elevation” value is “significantly attenuated”. Also, in the series on RTS-induced liver injury (single dose + RTS 40 mg/kg), the “RTS-induced hepatic MDA elevation” value is recorded as “significantly reduced” and the “RTS-induced serum ALT elevation” value is “significantly reduced”. In the series on RTS-induced liver injury (setting [4]), the “hepatic MDA level compared with vehicle” value is on record as “unchanged” and the “serum ALT level compared with vehicle” value is reported as “unchanged”. Also, in series [1], the “RTS-induced damage of sinusoids (RECA-1 immunofluorescence)” value was “significantly less”. Moreover, in the series on pyrrole-protein adducts [2] (setting [5]), the “reduction of pyrrole-protein adducts in liver” value is reported as 32.5% and the “reduction of pyrrole-protein adducts in plasma” value came out at 56.5%. In addition, in the series with pyrrole-protein adducts [2] (setting [6]), the “reduction of pyrrole-protein adducts in liver” value is given as 30.3% and the “reduction of pyrrole-protein adducts in plasma” value was determined as 50.8%. For the same compound, the “reduction of AUC0–1440min of pyrrole-protein adducts” value in the series with pyrrole-protein adducts [3] was found to be 16.2%. In addition, in the series on rat CYP3A1 (GA 10 µM), the “Lineweaver-Burk Slope” value is reported as 1.424±0.040, the “Lineweaver-Burk Y-intercept when X=0.0” value turned out to be 0.174±0.017 and the “Vmax of nifedipine metabolism” value is on record as 6.326±0.079 nmol/min/mg protein. In addition, in the series with rat CYP3A1 (GA 25 µM), the “Lineweaver-Burk Slope” value is given as 2.671±0.041, the “Lineweaver-Burk Y-intercept when X=0.0” value is 0.144±0.018 and the “Vmax of nifedipine metabolism” value was determined as 6.586±0.083 nmol/min/mg protein. Moreover, in the series with rat CYP3A1 (GA 50 µM), the “Lineweaver-Burk Slope” value came out at 4.916±0.064, the “Lineweaver-Burk Y-intercept when X=0.0” value is recorded as 0.137±0.028 and the “Vmax of nifedipine metabolism” value is listed as 6.473±0.146 nmol/min/mg protein.
